According to ChEMBL document CHEMBL3425460, “Stereoselective synthesis of 11-phenylundeca-5Z,9Z-dienoic acid and investigation of its human topoisomerase I and IIα inhibitory activity” (Bioorg Med Chem Lett, 2015):
Active and inactive are the calls of the source. The rule behind the calls is not given here.

Legend:
[1] = target: DNA topoisomerase 2-alpha (Homo sapiens) (UniProt P11388); experiment: Inhibition of human topoisomerase 2 alpha-mediated DNA cleavage assessed as linear form of plasmid by electrophoregram
[2] = Induction of pHOT1 DNA (unknown origin) cleavage assessed as conversion of supercoiled DNA to linear and nicked form of DNA at 5 to 500 uM after 30 mins by gel electrophoretic mobility assay
[3] = target: DNA topoisomerase 2-alpha (Homo sapiens) (UniProt P11388); experiment: Inhibition of human topoisomerase 2 alpha-mediated DNA cleavage assessed as accumulation of nicked DNA at 0.06 to 10 uM by ethidium bromide staining based electrophoregram
[4] = target: T1, DNA topoisomerase 1 (Homo sapiens) (UniProt P11387); conditions: 0.06 to 10 uM
T1 sequence (whole entry): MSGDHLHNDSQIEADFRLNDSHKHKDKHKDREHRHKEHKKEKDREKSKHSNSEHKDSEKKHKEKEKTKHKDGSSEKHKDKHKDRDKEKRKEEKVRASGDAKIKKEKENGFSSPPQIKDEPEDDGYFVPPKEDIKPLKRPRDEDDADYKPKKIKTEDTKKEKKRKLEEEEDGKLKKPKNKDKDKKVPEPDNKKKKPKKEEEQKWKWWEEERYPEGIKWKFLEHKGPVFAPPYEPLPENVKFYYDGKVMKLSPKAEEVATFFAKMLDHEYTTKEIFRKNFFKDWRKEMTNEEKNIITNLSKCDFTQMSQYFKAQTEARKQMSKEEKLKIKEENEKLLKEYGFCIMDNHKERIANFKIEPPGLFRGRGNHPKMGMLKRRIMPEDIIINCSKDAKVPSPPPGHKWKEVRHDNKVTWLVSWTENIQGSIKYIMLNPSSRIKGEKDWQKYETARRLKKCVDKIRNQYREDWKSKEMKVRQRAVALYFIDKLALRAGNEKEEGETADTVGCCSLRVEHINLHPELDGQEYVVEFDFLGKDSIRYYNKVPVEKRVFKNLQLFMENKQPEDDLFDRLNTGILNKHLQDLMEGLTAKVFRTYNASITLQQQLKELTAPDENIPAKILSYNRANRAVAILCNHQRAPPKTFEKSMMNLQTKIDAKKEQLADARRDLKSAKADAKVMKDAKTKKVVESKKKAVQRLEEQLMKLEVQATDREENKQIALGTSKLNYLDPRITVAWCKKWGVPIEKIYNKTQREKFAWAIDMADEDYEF
Description: Inhibition of human topoisomerase 1-mediated DNA cleavage assessed as accumulation of nicked DNA at 0.06 to 10 uM by ethidium bromide staining based electrophoregram

[5] = target: DNA topoisomerase 2-alpha (Homo sapiens) (UniProt P11388); experiment: Inhibition of human topoisomerase 2 alpha-mediated DNA cleavage assessed as accumulation of nicked DNA at 0.06 to 10 uM by electrophoregram
DNA topoisomerase 1 = target: T2, DNA topoisomerase 1 (Homo sapiens, UniProt P11387); experiment: Inhibition of human topoisomerase 1-mediated DNA cleavage assessed as accumulation of nicked DNA by ethidium bromide staining based electrophoregram
T2 sequence (P11387 whole entry): T1 sequence (whole entry)

Sequence of DNA topoisomerase 2-alpha (Homo sapiens) (P11388 whole entry): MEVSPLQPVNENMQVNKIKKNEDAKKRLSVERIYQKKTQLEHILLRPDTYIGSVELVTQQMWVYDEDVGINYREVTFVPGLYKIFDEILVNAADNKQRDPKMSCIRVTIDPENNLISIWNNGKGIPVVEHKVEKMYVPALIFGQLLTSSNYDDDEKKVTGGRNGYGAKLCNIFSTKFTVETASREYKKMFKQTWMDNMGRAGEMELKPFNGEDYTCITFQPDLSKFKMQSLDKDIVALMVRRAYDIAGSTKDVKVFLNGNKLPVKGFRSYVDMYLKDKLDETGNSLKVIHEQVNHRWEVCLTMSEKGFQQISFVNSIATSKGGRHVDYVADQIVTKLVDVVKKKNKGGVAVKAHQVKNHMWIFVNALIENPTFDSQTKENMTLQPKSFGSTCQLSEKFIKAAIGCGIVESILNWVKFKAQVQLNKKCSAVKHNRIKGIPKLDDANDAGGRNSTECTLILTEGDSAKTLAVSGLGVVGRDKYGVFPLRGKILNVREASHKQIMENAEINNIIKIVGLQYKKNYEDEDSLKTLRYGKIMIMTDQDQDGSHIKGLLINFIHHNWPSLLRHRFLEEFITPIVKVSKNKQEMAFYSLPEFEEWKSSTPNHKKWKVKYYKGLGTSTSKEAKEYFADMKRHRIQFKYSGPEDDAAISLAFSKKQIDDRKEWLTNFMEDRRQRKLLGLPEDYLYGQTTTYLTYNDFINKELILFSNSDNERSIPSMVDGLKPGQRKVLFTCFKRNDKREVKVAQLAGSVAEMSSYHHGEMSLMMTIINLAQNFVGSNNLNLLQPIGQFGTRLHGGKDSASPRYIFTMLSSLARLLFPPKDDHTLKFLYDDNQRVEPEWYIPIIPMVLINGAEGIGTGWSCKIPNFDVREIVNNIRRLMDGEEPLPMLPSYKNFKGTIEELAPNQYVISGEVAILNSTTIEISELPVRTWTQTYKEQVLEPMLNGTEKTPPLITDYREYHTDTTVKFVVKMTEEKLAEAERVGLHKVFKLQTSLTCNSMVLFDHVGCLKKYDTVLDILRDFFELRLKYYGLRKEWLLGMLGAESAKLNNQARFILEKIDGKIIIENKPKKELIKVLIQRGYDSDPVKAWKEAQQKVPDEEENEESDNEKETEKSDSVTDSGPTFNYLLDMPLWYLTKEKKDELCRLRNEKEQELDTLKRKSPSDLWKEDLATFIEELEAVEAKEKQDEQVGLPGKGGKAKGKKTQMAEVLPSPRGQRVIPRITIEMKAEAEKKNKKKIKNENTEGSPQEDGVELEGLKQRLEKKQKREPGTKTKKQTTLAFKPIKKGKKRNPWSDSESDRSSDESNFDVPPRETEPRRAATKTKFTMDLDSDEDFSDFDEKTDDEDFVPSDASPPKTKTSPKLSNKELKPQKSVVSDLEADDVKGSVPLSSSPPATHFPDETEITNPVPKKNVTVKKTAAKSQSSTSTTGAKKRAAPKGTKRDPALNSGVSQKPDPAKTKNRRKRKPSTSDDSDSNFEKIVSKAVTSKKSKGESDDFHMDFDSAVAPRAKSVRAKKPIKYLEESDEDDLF

Row | inhibition [1] | Activity [2] | inhibition [3] | inhibition [4] | inhibition [5] | IC50 (DNA topoisomerase 1) [µM] | SMILES
1 | Dose-dependent effect | Active | Active | Active | Active | 0.67 | O=C(O)CCC/C=C\CC/C=C\Cc1ccccc1
2 |  |  |  |  |  | 0.81 | CCCCCCCCCC/C=C\CC/C=C\CCCC(=O)O
